Earlier results as cited in US11154529B2, “Phosphaplatin liquid formulations” (Phosplatin Therapeutics Inc., priority 2016, dated 2021).

Settings: cited from earlier work

O=P1(O)OP(=O)(O)[O][Pt]2([NH][C@@H]3CCCC[C@H]3[NH]2)[O]1 (stereo partly drawn) [(R,R)-pyrodach-2, (R,R)-trans-1,2-cyclohexanediamine-(dihydrogenpyrophosphato)platinum(II)]
pKa values of the two acid groups (first): approximately 2.6 | pKa values of the two acid groups (second): ~4.4
